Nine molecules from article PMC8482274, “Inadequate Cerebrospinal Fluid Concentrations of Available Salvage Agents Further Impedes the Optimal Treatment of Multidrug-Resistant Enterococcus faecium Meningitis and Bacteremia” (Infectious Disease Reports, 2021) can be followed below.

This test deals with VREf isolates. The test is described as follows: microbe, parasite or virus in culture. On the procedure:
Initial organism identification and susceptibility determination were performed via MALDI-TOF MS (Bruker Daltonics, Billerica, MA, USA) and MicroScan Walkaway (Beckman Coulter, Brea, CA), respectively, in the clinical microbiology laboratory. Pure colonies of the VREf isolates cultured from the CSF on hospital days 33 and 57 and from blood on days 35 and 52 were sub-cultured to BD BBL chocolate II agar slants (Becton, Dickinson and Company, Sparks, MD, USA) and shipped immediately overnight to the research laboratory where all subsequent testing was performed. Identification and resistance marker detection was confirmed via the Verigene Gram-positive blood culture assay (Luminex, Northbrook, IL, USA).
Minimum inhibitory concentrations were determined in triplicate according to CLSI guidelines. Modal MIC values are reported.

[1] abbreviates: Enterococcus faecium, VREf isolate from CSF, hospital day 33, modal MIC of triplicate, CLSI guidelines.
Where [2] appears, read: Enterococcus faecium, VREf isolate from CSF, hospital day 57, modal MIC of triplicate, CLSI guidelines.
Setting [3] is: Enterococcus faecium, VREf isolate from blood, hospital day 35, modal MIC of triplicate, CLSI guidelines.
[4] abbreviates: Enterococcus faecium, VREf isolate from blood, hospital day 52, modal MIC of triplicate, CLSI guidelines.
[5] abbreviates: VREf isolate from CSF, hospital day 33, CLSI M100-S30 unless footnoted (b: CLSI vancomycin-susceptible E. faecalis; c: FDA E. faecalis; d: EUCAST v.10.0 E. faecium).
The mark [6] stands for this setting: VREf isolate from CSF, hospital day 57, CLSI M100-S30 unless footnoted.
Where [7] appears, read: VREf isolate from blood, hospital day 35, CLSI M100-S30 unless footnoted.
Where [8] appears, read: VREf isolate from blood, hospital day 52, CLSI M100-S30 unless footnoted.

Read-outs that look alike come from different tables or passages of the source.

As to `CC1(C)S[C@@H]2[C@H](NC(=O)[C@H](N)c3ccccc3)C(=O)N2[C@H]1C(=O)O` [Ampicillin], the MIC runs as follows: under setting [1], not below 16 µg/mL; under setting [2], not below 16 µg/mL; under setting [3], not below 16 µg/mL; under setting [4], not below 16 µg/mL. The “Interpretive Category” value by setting is: under setting [5], “R”; under setting [6], “R”; under setting [7], “R”; under setting [8], “R”.
With `CCO/N=C(\C(=O)N[C@@H]1C(=O)N2C(C(=O)[O-])=C(Sc3nc(-c4cc[n+](C)cc4)cs3)CS[C@H]12)c1nsc(N)n1` [Ceftaroline], the MIC under setting [1] is not below 128 µg/mL, the MIC under setting [2] was not below 128 µg/mL, the MIC under setting [3] was not below 128 µg/mL and the MIC under setting [4] is not below 128 µg/mL.
Take `CO/N=C(\C(=O)N[C@@H]1C(=O)N2C(C(=O)O)=C(CSc3nc(=O)c(=O)[nH]n3C)CS[C@H]12)c1csc(N)n1` [Ceftriaxone]: the MIC by setting is: under setting [1], not below 128 µg/mL; under setting [2], not below 128 µg/mL; under setting [3], not below 128 µg/mL; under setting [4], not below 128 µg/mL.
Take `O=C(N[C@H](CO)[C@H](O)c1ccc([N+](=O)[O-])cc1)C(Cl)Cl` [Chloramphenicol]: the MIC reads like this: under setting [1], not below 32 µg/mL; under setting [2], not below 32 µg/mL; under setting [3], not below 32 µg/mL; under setting [4], not below 32 µg/mL. The “Interpretive Category” value is on record as “R” under setting [5], “R” under setting [6], “R” under setting [7] and “R” under setting [8].
For `CN[C@H]1C(=O)N[C@@H]2Cc3ccc(cc3)Oc3cc4cc(c3O[C@@H]3O[C@H](C(=O)O)[C@@H](O)[C@H](O)[C@H]3NC(=O)CCCCCCCCC(C)C)Oc3ccc(cc3Cl)[C@@H](O)[C@@H]3NC(=O)[C@H](NC(=O)[C@@H]4NC(=O)[C@@H](NC2=O)c2cc(cc(O)c2Cl)Oc2cc1ccc2O)c1ccc(O)c(c1)-c1c(O[C@H]2O[C@H](CO)[C@@H](O)[C@H](O)[C@@H]2O)cc(O)cc1[C@@H](C(=O)NCCCN(C)C)NC3=O` [Dalbavancin], the MIC is not below 4 µg/mL.
On to `Nc1nc(-n2cc(C(=O)O)c(=O)c3cc(F)c(N4CC(O)C4)c(Cl)c32)c(F)cc1F` [Delafloxacin], for which the MIC was more than 8 µg/mL under setting [1], more than 8 µg/mL under setting [2], more than 8 µg/mL under setting [3] and more than 8 µg/mL under setting [4]. Also, the “Interpretive Category” value under setting [5] was “R”, the “Interpretive Category” value under setting [6] is on record as “R”, the “Interpretive Category” value under setting [7] is “R” and the “Interpretive Category” value under setting [8] is given as “R”.
With `CC[C@H]1OC(=O)[C@H](C)[C@@H](O[C@H]2C[C@@](C)(OC)[C@@H](O)[C@H](C)O2)[C@H](C)[C@@H](O[C@@H]2O[C@H](C)C[C@H](N(C)C)[C@H]2O)[C@](C)(O)C[C@@H](C)C(=O)[C@H](C)[C@@H](O)[C@]1(C)O` [Erythromycin], the MIC was not below 8 µg/mL under setting [1], not below 8 µg/mL under setting [2], not below 8 µg/mL under setting [3] and not below 8 µg/mL under setting [4]. Further, the “Interpretive Category” value under setting [5] is recorded as “R”, the “Interpretive Category” value under setting [6] was “R”, the “Interpretive Category” value under setting [7] is recorded as “R” and the “Interpretive Category” value under setting [8] is recorded as “R”.
Regarding `C[C@@H]1O[C@@H]1P(=O)(O)O` [Fosfomycin], the MIC reads like this: under setting [1], 64 µg/mL; under setting [2], 64 µg/mL; under setting [3], 64 µg/mL; under setting [4], 64 µg/mL. Moreover, the “Interpretive Category” value under setting [5] was “S”, the “Interpretive Category” value under setting [6] was “S”, the “Interpretive Category” value under setting [7] is on record as “S” and the “Interpretive Category” value under setting [8] is on record as “S”.
`CNC(C)C1CCC(N)C(OC2C(N)CC(N)C(OC3OCC(C)(O)C(NC)C3O)C2O)O1` (stereo not drawn) [Gentamicin]: the MIC is not above 500 µg/mL under setting [1], not above 500 µg/mL under setting [2], not above 500 µg/mL under setting [3] and not above 500 µg/mL under setting [4]. Also, the “Interpretive Category” value is, setting by setting: under setting [5], “S”; under setting [6], “S”; under setting [7], “S”; under setting [8], “S”.
